The values below come from ChEMBL document CHEMBL4251607, “Antagonists of the adenosine A2A receptor based on a 2-arylbenzoxazole scaffold: Investigation of the C5- and C7-positions to enhance affinity” (Eur J Med Chem, 2018).

≈ marks a conversion by molar mass, not a printed value.

In series [1] the target is T1, Adenosine receptor A2a (Homo sapiens, UniProt P29274). The experiment in a line: Displacement of [3H]-ZM241385 from human adenosine A2A receptor expressed in CHO cell membranes after 1 hr by TopCount microplate scintillation counting method. In general terms: Loss of bound radioactivity is the signal in a displacement assay; it reports binding, not function.
Series [2] can be described thus: Protein binding in human plasma at 10 uM after 4 hrs.
A short description of series [3]: Apparent permeability from apical to basolateral side in human Caco2 cells at 10 uM after 40 mins. Conditions: Caco-2. Background: Caco-2 cells form a polarised layer with tight junctions and transporters.
Series [4] in a line: Apparent permeability from basolateral to apical side in human Caco2 cells at 10 uM after 40 mins. The settings on record: Caco-2.
Series [5] is described as follows: Half life in human liver microsomes at 0.1 uM. For orientation: Microsomes from liver hold many membrane-bound enzymes, among them those of drug oxidation.
Series [6] relates to SH-SY5Y. The experiment in a line: Cytotoxicity against human SH-SY5Y cells assessed as cell death after 72 hrs by MTT assay. Format: cell-based.
The nature of another series: physchem. Conditions: PBS, pH 7.4.
The next series can be described thus: in vitro. Conditions: human.
Series [7] addresses T1, Adenosine receptor A2a. The experiment in a line: Antagonist activity at human adenosine A2A receptor expressed in HEK293 cell membranes assessed as inhibition of […]-induced [35S]GTPgammaS binding preincubated for 10 mins followed by […] addition by TopCount scintillation counting method. Format: functional.
In series [8] the target is T1, Adenosine receptor A2a. Nature of the series: Displacement of [3H]-ZM241385 from human adenosine A2A receptor expressed in HEK293 cell membranes after 1 hr by scintillation counting method.
In series [9] the test system is SH-SY5Y. The experiment in a line: Cytotoxicity against human SH-SY5Y cells assessed as cell death at 10 uM after 72 hrs by MTT assay relative to control. Format: cell-based.
The next series concerns the target T2, Adenosine receptor A1 (Homo sapiens, UniProt P30542).
T2 sequence (P30542 whole entry): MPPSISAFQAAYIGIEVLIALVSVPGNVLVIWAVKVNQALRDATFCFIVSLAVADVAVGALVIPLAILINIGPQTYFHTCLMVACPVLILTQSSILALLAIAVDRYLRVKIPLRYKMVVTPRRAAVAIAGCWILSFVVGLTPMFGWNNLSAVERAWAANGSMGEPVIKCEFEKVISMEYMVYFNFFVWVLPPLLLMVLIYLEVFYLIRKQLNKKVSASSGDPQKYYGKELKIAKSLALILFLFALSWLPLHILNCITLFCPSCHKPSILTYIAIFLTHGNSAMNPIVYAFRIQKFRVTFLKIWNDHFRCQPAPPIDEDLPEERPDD
Nature of the series: Displacement of [3H]DPCPX from human adenosine A1 receptor expressed in CHO cell membranes.

The target of series [10] is T3, Adenosine receptor A2b (Homo sapiens) (UniProt P29275).
T3 sequence (whole entry): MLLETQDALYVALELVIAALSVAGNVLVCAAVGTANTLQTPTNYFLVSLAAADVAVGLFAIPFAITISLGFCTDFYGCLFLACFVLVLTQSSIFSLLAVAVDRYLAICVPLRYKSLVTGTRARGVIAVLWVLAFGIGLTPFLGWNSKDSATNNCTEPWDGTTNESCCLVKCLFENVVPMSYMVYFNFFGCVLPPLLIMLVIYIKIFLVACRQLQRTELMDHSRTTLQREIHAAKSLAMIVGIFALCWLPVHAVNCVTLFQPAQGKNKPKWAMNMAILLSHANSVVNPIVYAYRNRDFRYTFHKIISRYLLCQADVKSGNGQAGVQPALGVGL
The experiment in a line: Displacement of [3H]CPX from human adenosine A2B receptor expressed in HEK293 cell membranes at 10 uM relative to control.

Series [11] concerns the target T4, Adenosine receptor A3 (Homo sapiens) (UniProt P0DMS8).
T4 sequence (whole entry): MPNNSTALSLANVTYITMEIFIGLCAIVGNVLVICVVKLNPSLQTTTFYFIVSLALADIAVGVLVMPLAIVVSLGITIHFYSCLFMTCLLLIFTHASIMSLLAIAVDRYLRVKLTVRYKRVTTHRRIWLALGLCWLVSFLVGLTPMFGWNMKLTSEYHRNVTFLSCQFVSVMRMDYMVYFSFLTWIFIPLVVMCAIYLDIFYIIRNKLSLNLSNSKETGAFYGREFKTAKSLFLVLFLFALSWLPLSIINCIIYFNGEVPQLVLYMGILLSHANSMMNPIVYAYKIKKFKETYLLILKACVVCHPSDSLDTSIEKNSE
Nature of the series: Displacement of [125I]ABMECA from human adenosine A3 receptor expressed in HEK293 cell membranes at 10 uM relative to control.

In series [12] the target is T1, Adenosine receptor A2a. Nature of the series: Antagonist activity at adenosine A2A receptor (unknown origin).

T1 sequence (P29274 whole entry): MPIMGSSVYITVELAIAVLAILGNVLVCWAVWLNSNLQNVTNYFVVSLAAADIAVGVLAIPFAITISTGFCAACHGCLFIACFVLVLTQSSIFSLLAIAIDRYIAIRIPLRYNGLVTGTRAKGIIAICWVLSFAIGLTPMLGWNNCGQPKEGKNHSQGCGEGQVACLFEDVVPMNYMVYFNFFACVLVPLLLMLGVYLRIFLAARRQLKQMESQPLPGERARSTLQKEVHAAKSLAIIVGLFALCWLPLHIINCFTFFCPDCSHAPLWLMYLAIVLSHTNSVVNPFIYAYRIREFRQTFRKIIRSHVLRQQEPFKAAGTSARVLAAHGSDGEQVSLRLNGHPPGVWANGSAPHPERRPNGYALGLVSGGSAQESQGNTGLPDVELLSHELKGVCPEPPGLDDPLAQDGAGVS
Description for in vitro: Intrinsic clearance in human liver microsomes at 0.1 uM

Regarding `COc1ccc(-c2cc(N)cc3nc(-c4ccco4)oc23)cc1OC`, the affinity on Adenosine receptor A2a [1] corresponds to a Ki of 90 nM.

On to `O=C(CCN1CCOCC1)Nc1cc(-c2ccco2)c2oc(-c3ccco3)nc2c1`, for which affinity at Adenosine receptor A2a [1] was put at a Ki of 90 nM. Also, the fraction unbound at 4 h, 10 µM in series [2] is 0.02. Besides, the Papp A→B at 40 min, 10 µM in [3] is 11 ×10⁻⁶ cm/s. Also, in series [4], the Papp B→A at 40 min, 10 µM came out at 1.6 ×10⁻⁶ cm/s. This molecule also returned a half-life at 0.1 µM in series [5] (microsomes) above 1 h. For the same molecule, the IC50 with SH-SY5Y [6] is 77000 nM. In the series “physchem”, this molecule gave a solubility at 24 h of 173 µM (≈ 70.5 µg/mL). Besides, the microsomal CLint at 0.1 µM in “in vitro” (microsomes) is below 115 µL/min/mg.

In the case of `O=C(CCN1CCCCC1)Nc1cc(-c2ccco2)c2oc(-c3ccco3)nc2c1`, at Adenosine receptor A2a [1], affinity was put at a Ki of 81 nM. In [2], this molecule showed a fraction unbound at 4 h, 10 µM of 0.02. Also, in [3], the Papp A→B at 40 min, 10 µM was found to be 2.3 ×10⁻⁶ cm/s. In [4], the Papp B→A at 40 min, 10 µM came to 1.2 ×10⁻⁶ cm/s. Moreover, the half-life at 0.1 µM in series [5] (liver microsomes) is 0.683 h. The IC50 with SH-SY5Y [6] is 9000 nM. Also, in “physchem”, the solubility at 24 h was found to be 165 µM (≈ 66.9 µg/mL). In addition, the microsomal CLint at 0.1 µM in “in vitro” (liver microsomes) was 172 µL/min/mg.

As to `O=C(CN1CCCCC1)Nc1cc(-c2ccco2)c2oc(-c3ccco3)nc2c1`, affinity on Adenosine receptor A2a [1] was put at a Ki of 210 nM. In addition, the half-maximal inhibitory concentration (IC50) at Adenosine receptor A2a [7] was found to be 486 nM.

In the case of `Nc1ccc2oc(-c3ccco3)nc2c1`, the Ki at Adenosine receptor A2a [8] and on Adenosine receptor A2a [1] was 10000 nM each time.

Take `CCOCCOc1ccc(N2CCN(CCC(=O)Nc3cc(-c4ccco4)c4oc(-c5ccco5)nc4c3)CC2)cc1`: the Ki on Adenosine receptor A2a [1] is above 10000 nM.

In the case of `Nc1cc(-c2ccccn2)c2oc(-c3ccco3)nc2c1`, on Adenosine receptor A2a [1], the affinity corresponds to a Ki of 135 nM.

`Nc1cc(-c2ccc(C(F)(F)F)cc2)c2oc(-c3ccco3)nc2c1` had a Ki on Adenosine receptor A2a [1] above 10000 nM.

`O=C(CN1CCCCC1)Nc1ccc2oc(-c3ccco3)nc2c1`: the Ki on Adenosine receptor A2a [8] and on Adenosine receptor A2a [1] was 1000 nM each time. The Activity in the series with SH-SY5Y [9] is recorded as 0%.

On Adenosine receptor A2a [1], `Nc1cc(NC(=O)CN2CCCCC2)cc2nc(-c3ccco3)oc12` returned a Ki of 480 nM. In addition, the IC50 on Adenosine receptor A2a [7] was 250 nM.

`Nc1cc(-c2ccccc2)c2oc(-c3ccco3)nc2c1` yielded a Ki at Adenosine receptor A2a [1] of 202 nM.

Take `Nc1cc(-c2ccco2)c2oc(-c3ccco3)nc2c1`: the figures for the Ki at Adenosine receptor A2a [1] and on Adenosine receptor A1 were 40 nM and 7.7 nM, respectively. The IC50 stood at 70.6 nM on Adenosine receptor A2a [7] and 40000 nM in the series with SH-SY5Y [6]. For the same molecule, the fraction unbound at 4 h, 10 µM in series [2] was 0.1. Further, in series [3], the Papp A→B at 40 min, 10 µM was 77 ×10⁻⁶ cm/s. Further, the Papp B→A at 40 min, 10 µM in [4] stood at 37 ×10⁻⁶ cm/s. For the same molecule, the half-life at 0.1 µM in [5] (liver microsomes) was above 1 h. For the same molecule, the inhibition in [10] came out at 94%; in series [11], 90%. The concentration in solution in the series “physchem” (solubility at 24 h) was 31 µM (≈ 8.25 µg/mL). Further, the microsomal CLint at 0.1 µM in “in vitro” (liver microsomes) was below 115 µL/min/mg.

`COc1ccc(-c2cc(NC(=O)CCN3CCc4ccccc4C3)cc3nc(-c4ccco4)oc23)cc1OC` registered a Ki on Adenosine receptor A2a [1] above 10000 nM.

On Adenosine receptor A2a [1], `O=C(CCCN1CCCCC1)Nc1cc(-c2ccco2)c2oc(-c3ccco3)nc2c1` returned a Ki of 98 nM.

The molecule `O=C(CCN1CCc2ccccc2C1)Nc1cc(-c2ccco2)c2oc(-c3ccco3)nc2c1` registered a Ki at Adenosine receptor A2a [1] of 30 nM. Besides, the fraction unbound at 4 h, 10 µM in [2] was 0.001. The Papp A→B at 40 min, 10 µM in [3] turned out to be 0.2 ×10⁻⁶ cm/s. The half-life at 0.1 µM in [5] (liver microsomes) was above 1 h. Besides, the Activity with SH-SY5Y [9] was determined as 37%. The amount in solution in “physchem” (solubility at 24 h) came to 8 µM (≈ 3.63 µg/mL). The microsomal CLint at 0.1 µM in “in vitro” (liver microsomes) was below 115 µL/min/mg.

Turning to `Nc1cc(N2CCOCC2)c2oc(-c3ccco3)nc2c1`, the Ki at Adenosine receptor A2a [1] was above 10000 nM.

Regarding `Nc1cc(NC(=O)CN2CCCCC2)c2oc(-c3ccco3)nc2c1`, the Ki on Adenosine receptor A2a [1] is above 10000 nM.

`Nc1cc(-c2cccs2)c2oc(-c3ccco3)nc2c1` gave a Ki on Adenosine receptor A2a [1] of 71 nM.

`COCCOc1ccc(N2CCN(CCn3ncc4c3nc(N)n3nc(-c5ccco5)nc43)CC2)cc1` [PRELADENANT] yielded a Ki on Adenosine receptor A2a [12] of 0.5 nM.

On Adenosine receptor A2a [1], `Cc1ccc(-c2cc(N)cc3nc(-c4ccco4)oc23)cc1` returned a Ki above 10000 nM.

For the molecule `Nc1cc(-c2ccc(F)cc2)c2oc(-c3ccco3)nc2c1`, affinity at Adenosine receptor A2a [1] was put at a Ki of 438 nM.

In general, Ki refers to the equilibrium dissociation constant of an inhibitor or competing ligand from its target. A higher Ki goes with weaker binding. Usually fraction unbound stands for free concentration divided by total concentration. The low end stands for extensive binding, the high end for weak binding. Usually Papp A→B stands for how fast a substance crosses the layer from the apical side. For orientation: Papp B→A means the apparent permeability from the basolateral to the apical side of a cell layer. Broadly, the half-life is the time in which the quantity being followed falls by half. As a reminder, the IC50 is the midpoint of a concentration-inhibition curve. What is called solubility is the concentration that dissolves in the medium under given conditions. A higher solubility goes with a readily soluble substance. As a reminder, the microsomal CLint is a measure of how fast metabolising enzymes remove a compound, apart from limits set by blood flow. High values mean rapid turnover, low ones slow turnover. A word on the inhibition: it is the change of the read-out against control, counted positive when it falls.
